Source: patent US10947213B1 (Merck Patent GmbH, priority 2015, dated 2021)
Structures can show the parent of a compound that is named as a salt.

What follows are molecules tested against T1, TLR7/NFKb HEK cells (Homo sapiens, UniProt Q9NYK1) (assay: HEK Cell Assay (TLR7/NFKb reporter, Steady-Glo luciferase readout)). Settings: 30 min compound preincubation, then R*48 agonist for 5 hours, read-out: Potency.
T1 construct: expressed in transfected cells; host or cells: HEK cells (TLR7/NFKb reporter line)
T1 sequence (Q9NYK1 27-1049): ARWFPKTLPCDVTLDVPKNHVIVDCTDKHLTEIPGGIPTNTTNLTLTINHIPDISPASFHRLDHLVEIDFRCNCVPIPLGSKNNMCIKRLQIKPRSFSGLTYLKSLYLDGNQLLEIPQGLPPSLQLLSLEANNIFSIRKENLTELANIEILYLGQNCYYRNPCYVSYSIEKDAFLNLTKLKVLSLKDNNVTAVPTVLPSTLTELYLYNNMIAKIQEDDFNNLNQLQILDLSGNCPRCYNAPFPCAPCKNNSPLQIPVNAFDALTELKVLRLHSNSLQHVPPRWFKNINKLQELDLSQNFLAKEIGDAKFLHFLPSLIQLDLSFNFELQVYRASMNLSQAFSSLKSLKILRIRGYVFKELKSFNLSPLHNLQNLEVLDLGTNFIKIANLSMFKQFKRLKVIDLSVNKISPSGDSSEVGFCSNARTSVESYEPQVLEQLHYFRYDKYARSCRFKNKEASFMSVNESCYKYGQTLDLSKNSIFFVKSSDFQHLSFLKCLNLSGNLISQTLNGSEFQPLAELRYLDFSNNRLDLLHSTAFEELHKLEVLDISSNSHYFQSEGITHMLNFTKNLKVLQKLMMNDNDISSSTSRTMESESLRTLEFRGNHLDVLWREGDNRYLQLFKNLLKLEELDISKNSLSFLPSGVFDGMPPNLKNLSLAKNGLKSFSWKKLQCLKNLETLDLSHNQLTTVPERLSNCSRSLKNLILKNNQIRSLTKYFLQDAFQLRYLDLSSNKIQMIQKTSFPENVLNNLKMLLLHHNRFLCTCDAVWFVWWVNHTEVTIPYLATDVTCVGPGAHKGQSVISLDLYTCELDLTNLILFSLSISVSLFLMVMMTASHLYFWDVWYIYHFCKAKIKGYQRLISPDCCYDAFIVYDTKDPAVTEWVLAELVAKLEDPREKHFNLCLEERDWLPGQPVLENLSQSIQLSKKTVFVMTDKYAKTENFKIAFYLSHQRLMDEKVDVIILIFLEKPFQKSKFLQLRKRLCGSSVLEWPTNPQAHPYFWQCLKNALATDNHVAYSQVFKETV
Assay type: cell-based
How it was run: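 Steady-Glo luminescence after 5 h stimulation with R*48 agonist, following 30 min compound preincubation. Assay run in HEK cells carrying a TLR7/NFKb luciferase reporter, plated at 5000 cells/well and grown 24 h at 37° C (10% CO2) before treatment.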

| Structure (SMILES) | IC50 |
| --- | --- |
| C[C@H]1C[C@@H](NC(=O)C2CCCN2C)CN(c2ccnc3nccnc23)C1 (stereo partly drawn) [Compound 172, Methyl-N-[(3R,5S)-5-methyl-1-[pyrido[2,3-b]pyrazin-8-yl]piperidin-3-yl]pyrrolidine-2-carboxamide] | 1000 to 10000 nM |
| N#Cc1ccc(N2C[C@@H](NC(=O)CO)C[C@@H](C(F)(F)F)C2)c2nccnc12 (relative stereo) [Compound 223, cis-N-[1-(8-cyanoquinoxalin-5-yl)-5-(trifluoromethyl)piperidin-3-yl]-2-hydroxyacetamide] | 1000 to 10000 nM |
| Cc1ncc(N2C[C@@H](C)C[C@@H](NC(=O)CC(C)(C)O)C2)c2cccnc12 [Compound 555, 3-Hydroxy-3-methyl-N-[(3R,5S)-5-methyl-1-(8-methyl-[1,7]naphthyridin-5-yl)-piperidin-3-yl]-butyramide] | 1000 to 10000 nM |
| C[C@@H]1CN(c2ccnc3ccccc23)C[C@H](C)O1 [Compound 45, (2S,6R)-2,6-dimethyl-4-(quinolin-4-yl)morpholine] | > 10000 nM |
| CCC(C)C(=O)N[C@@H]1C[C@H](C)CN(c2ccc(C#N)c3nccnc23)C1 (single isomer, unassigned) [Compound 155] | 1000 to 10000 nM |
| CC(Cl)C(=O)NC1CN(c2ccc(C#N)c3nccnc23)CC(F)(F)C1 (stereo not shown) [Compound 506, 2-Chloro-N-[1-(8-cyano-quinoxalin-5-yl)-5,5-difluoro-piperidin-3-yl]-propionamide] | 1000 to 10000 nM |
| O=C(CN1CCCCC1)NCC1CCN(c2ccnc3ccccc23)CC1 [Compound 8, 2-(Piperidin-1-yl)-N-((1-(quinolin-4-yl)piperidin-4-yl)methyl)acetamide] | 1000 to 10000 nM |
| C[C@H]1C[C@@H](NCC(=O)O)CN(c2ccc(C(F)(F)F)c3ncccc23)C1 [Compound 571, [(3R,5S)-5-Methyl-1-(8-trifluoromethyl-quinolin-5-yl)-piperidin-3-ylamino]-acetic acid] | 1000 to 10000 nM |
| N#Cc1ccc(N2CCC(C(=O)NCCN3CCOCC3)CC2)c2cccnc12 [Compound 419, 1-(8-Cyano-quinolin-5-yl)-piperidine-4-carboxylic Acid (2-morpholin-4-yl-ethyl)-amide] | 1000 to 10000 nM |
| COCCN[C@@H]1C[C@H](C)CN(c2ccc(C(N)=O)c3ncccc23)C1 [Compound 183, 5-[(3R,5S)-3-[(2-methoxyethyl)amino]-5-methylpiperidin-1-yl]quinoline-8-carboxamide] | > 10000 nM |
| C[C@H]1C[C@@H](NC(=O)CN(C)C)CN(c2ccc(C(N)=O)c3ncccc23)C1 [Compound 186, 5-[(3R,5S)-3-[2-(dimethylamino)acetamido]-5-methylpiperidin-1-yl]quinoline-8-carboxamide] | > 10000 nM |
| C[C@H]1C[C@@H](NC(=O)NCCN(C)C)CN(c2ccc(C(F)(F)F)c3ncccc23)C1 [Compound 477, 1-(2-Dimethylamino-ethyl)-3-[(3R,5S)-5-methyl-1-(8-trifluoromethyl-quinolin-5-yl)-piperidin-3-yl]-urea] | < 1000 nM |
| C[C@H]1C[C@@H](NC(C)(C)CO)CN(c2ccc(C(F)(F)F)c3ncccc23)C1 [Compound 242, 2-methyl-2-[[(3R,5S)-5-methyl-1-[8-(trifluoromethyl)quinolin-5-yl]piperidin-3-yl]amino]propan-1-ol] | 1000 to 10000 nM |
| CC(C)(C)CC(=O)N[C@H]1C[C@@H](C(F)(F)F)CN(c2ccnc3nccnc23)C1 (relative stereo) [Compound 86, cis-3,3-dimethyl-N-[1-[pyrido[2,3-b]pyrazin-8-yl]-5-(trifluoromethyl)piperidin-3-yl]butanamide] | > 10000 nM |
| C[C@H]1C[C@@H](NC(=O)C(N)C(F)(F)F)CN(c2ccc(C#N)c3nccnc23)C1 (single isomer, unassigned) [Compound 112, hydrochloride] | 1000 to 10000 nM |
| C[C@H]1C[C@@H](NC(=O)CN(C)C)CN(c2ccc(C(F)(F)F)c3ncccc23)C1 [Compound 199, 2-(dimethylamino)-N-[(3R,5S)-5-methyl-1-[8-(trifluoromethyl)quinolin-5-yl]piperidin-3-yl]acetamide] | < 1000 nM |
| COCC(=O)N[C@@H]1C[C@H](C)CN(c2ccc(C#N)c3nccnc23)C1 [Compound 134, N-[(3R,5S)-1-(8-cyanoquinoxalin-5-yl)-5-methylpiperidin-3-yl]-2-methoxyacetamide] | 1000 to 10000 nM |
| CCC(C)C(=O)N[C@@H]1C[C@H](C)CN(c2ccnc3nccnc23)C1 (single isomer, unassigned) [Compound 156] | > 10000 nM |
| COCCN[C@@H]1C[C@H](C)CN(c2ccc(OC)c3ncccc23)C1 [Compound 190, (3R,5S)—N-(2-methoxyethyl)-1-(8-methoxyquinolin-5-yl)-5-methylpiperidin-3-amine] | < 1000 nM |
| CN(C)CCNC(=O)C1CCN(c2ccc(C#N)c3ncccc23)CC1 [Compound 415, 1-(8-Cyano-quinolin-5-yl)-piperidine-4-carboxylic Acid (2-dimethylamino-ethyl)-amide] | < 1000 nM |
| C[C@H]1C[C@@H](N)CN(c2ccc(C(N)=O)c3ncccc23)C1 [Compound 180, 5-[(3R,5S)-3-amino-5-methylpiperidin-1-yl]quinoline-8-carboxamide] | < 1000 nM |
| CCNC(=O)C1CCN(C[C@H]2CN(c3ccnc4nccnc34)C[C@@H](C)O2)CC1 [Compound 62, N-ethyl-1-(((2S,6R)-6-methyl-4-(pyrido[2,3-b]pyrazin-8-yl)morpholin-2-yl)methyl)piperidine-4-carboxamide] | 1000 to 10000 nM |
| NC1CN(c2ccc(C(F)(F)F)c3ncccc23)CC(F)(F)C1 (single isomer, unassigned) [Compound 527] | < 1000 nM |

Continued, values first:

| IC50 | Structure (SMILES) |
| --- | --- |
| < 1000 nM | CC1CC(CN2CCN(C)CC2)CN(c2ccc(C(F)(F)F)c3ncccc23)C1 (single isomer, unassigned) [Compound 533, cis-5-[3-Methyl-5-(4-methyl-piperazin-1-ylmethyl)-piperidin-1-yl]-8-trifluoromethyl-quinoline] |
| < 1000 nM | CC(C(=O)N[C@@H]1C[C@H](C)CN(c2ccc(C(F)(F)F)c3nccnc23)C1)N1CC(O)C1 (stereo partly shown) [Compound 297] |
| < 1000 nM | C[C@H]1C[C@@H](NC(=O)[C@@H](N)CO)CN(c2ccc(C(F)(F)F)c3ncccc23)C1 [Compound 476] |
| < 1000 nM | C[C@H]1C[C@@H](NC(=O)CC2CCCN(C)C2)CN(c2ccc(C(F)F)c3ncccc23)C1 (stereo partly drawn) [Compound 303, N-[(3R,5S)-1-[8-(difluoromethyl)quinolin-5-yl]-5-methylpiperidin-3-yl]-2-(1-methylpiperidin-3-yl)acetamide] |
| < 1000 nM | C[C@H]1C[C@@H](O)CN(c2ccc(C#N)c3nccnc23)C1 [Compound 81, 8-[(3R,5S)-3-hydroxy-5-methylpiperidin-1-yl]quinoxaline-5-carbonitrile] |
| < 1000 nM | CN1CCN(CC(=O)NC2CN(c3ccc(C#N)c4nccnc34)CC(F)(F)C2)CC1 (stereo not shown) [Compound 503, N-[1-(8-Cyano-quinoxalin-5-yl)-5,5-difluoro-piperidin-3-yl]-2-(4-methyl-piperazin-1-yl)-acetamide] |
| < 1000 nM | Cc1ncc(N2C[C@@H](C)C[C@@H](NC(=O)CC3CCN(C)CC3)C2)c2cccnc12 [Compound 554, N-[(3R,5S)-5-Methyl-1-(8-methyl-[1,7]naphthyridin-5-yl)-piperidin-3-yl]-2-(1-methyl-piperidin-4-yl)-acetamide] |
| < 1000 nM | CCN(C)[C@@H](C)C(=O)N[C@@H]1C[C@H](C)CN(c2ccc(C#N)c3nccnc23)C1 [Compound 99, (2S)—N-[(3R,5S)-1-(8-cyanoquinoxalin-5-yl)-5-methylpiperidin-3-yl]-2-[ethyl(methyl)amino]propanamide] |
| < 1000 nM | CCN1CCC(NC(=O)C2CC(C)CN(c3ccc(C#N)c4nccnc34)C2)CC1 (stereo not shown) [Compound 540, 1-(8-Cyano-quinoxalin-5-yl)-5-methyl-piperidine-3-carboxylic acid (1-ethyl-piperidin-4-yl)-amide] |
| < 1000 nM | C[C@H]1C[C@@H](NC(=O)C2CC(F)(F)C2)CN(c2ccc(C#N)c3nccnc23)C1 [Compound 235, N-[(3R,5S)-1-(8-cyanoquinoxalin-5-yl)-5-methylpiperidin-3-yl]-3,3-difluorocyclobutane-1-carboxamide] |
| < 1000 nM | C[C@H]1C[C@@H](NC(=O)CN2CC(N)C2)CN(c2ccc(C(F)(F)F)c3nccnc23)C1 [Compound 361, 2-(3-aminoazetidin-1-yl)-N-((3R,5S)-5-methyl-1-(8-(trifluoromethyl)quinoxalin-5-yl)piperidin-3-yl)acetamide] |
